A value given as a limit tells only on which side of the number the result lay.

The results in this text go back to US11957759B1, “Rapidly accelerated fibrosarcoma (RAF) degrading compounds and associated methods of use” (Arvinas Operations, Inc., priority 2022, dated 2024).

Assay type in all cases: cell-based
Experiment [1] deals with T1, B-RAF V600E (Homo sapiens, UniProt P15056, V600E).
T1 construct: expressed in transfected cells; host or cells: T-Rex 293 cells (Invitrogen #R71007)
Kind of experiment: Target protein degradation, assay A: T-Rex 293 cells, HA-B-RAF_V600E, 96 well format. Particulars: T-Rex 293 HA-B-RAF_V600E cells, 24 hours, Examples 1-82. As for the experimental part: A. T-Rex 293 Cells (96 well format)
T-Rex 293 cells were purchased from Invitrogen (#R71007), and stably transfected with a pcDNA4/TO_HA-B-RAF_V600E construct, using 400 ug Zeocin for selection. V600e cells are plated in ulbecco's Modified Eagle Medium (DMEM; Gibco #11965118) containing 10% fetal bovine serum (FBS; Gibco #16000044) and 1 ng/mL doxycycline (Selleckchem #4163) at a density of 5,000 cells/well in 50 μl on poly-D-lysine (PDL) coated, black clear bottom 96-well plates (Corning #354640) and incubated for 24 hours at 37° C. with 5% CO2. The following day 50 ul of tested compound was added at 2× concentration in DMEM with a final concentration ranging from 1 μM to 0.1 nM in 0.1% dimethylsulfoxide (DMSO), and incubated for 24 hours at 37° C. with 5% CO2. At the end of the experimental treatment, the media was flicked off and cells washed once with phosphate-buffered saline (PBS)++(PBS with CaCl and MgCl) and gently replacing with 200 μl PBS++ per well. The PBS++ was removed and 50 uL 4% paraformaldehyde (PFA; EMS #15710) in PBS++ was added, and incubate at room temperature for 15 minutes. Cells were washed once with PBS++ and 50 uL 0.1% Triton X-100 (Fisher #BP151-500) in PBS++ was added. Plate was incubate for 5 minutes at room temperature. Cells were was once with PBS++. Cells were blocked with 100 uL Licor blocking buffer (Licor #927-50000) for 1 hour at room temperature. Next, 50 uL of HA antibody (CST #3724) at 1:1000 in Licor blocking buffer was added, and the plate icubate overnight at 4° C. The plates were parafilmed to prevent evaporation. Plate was washed three times with 200 uL PBS++. Fifty microliters of HCS secondary antibody solution [1:1000 Hoechst (Invitrogen #H3570), 1:1000 phalloidin (Invitrogen #A22287) and 1:5000 Alexa fluor (Invitrogen #A11008)] was added and incubated for 1 hour. Plate was wash three times with 200 uL PBS++, and imaged on a high content reader (ImageXpress Micro XLS, Molecular Devices).
(§1) The concentration of an exemplary compound that leads to half maximal degradation (DC50) as well as the maximum degradation observed (Dmax, conventionally expressed as a percentage of control) is shown below in Table 2.

Experiment [2] addresses T2, B-RAF G466V (Homo sapiens, UniProt P15056, G466V).
T2 construct: expressed in transfected cells; host or cells: T-Rex 293 cells (Invitrogen #R71007)
Kind of experiment: Target protein degradation, assay B: T-Rex 293 cells, HA-B-RAF_G466V, 96 well format. The settings on record: T-Rex 293 HA-B-RAF_G466V cells, 24 hours, Examples 1-82. As for the experimental part:
B. T-Rex 293 Cells (96 Well Format)
T-Rex 293 cells were purchased from Invitrogen (#R71007), and stably transfected with a pcDNA4/TO_HA-B-RAF_G466V construct, using 400 ug Zeocin for selection. G466V cells are plated in ulbecco's Modified Eagle Medium (DMEM; Gibco #11965118) containing 10% fetal bovine serum (FBS; Gibco #16000044) and 0.75 ng/mL doxycycline (Selleckchem #4163) at a density of 5,000 cells/well in 50 μl on poly-D-lysine (PDL) coated, black clear bottom 96-well plates (Corning #354640) and incubated for 24 hours at 37° C. with 5% CO2. The following day 50 ul of tested compound was added at 2× concentration in DMEM with a final concentration ranging from 30 nM to 3 pM in 0.1% dimethylsulfoxide (DMSO), and incubated for 24 hours at 37° C. with 5% CO2. At the end of the experimental treatment, the media was flicked off and cells washed once with phosphate-buffered saline (PBS)++(PBS with CaCl and MgCl) and gently replacing with 200 μl PBS++ per well. The PBS++ was removed and 50 uL 4% paraformaldehyde (PFA; EMS #15710) in PBS++ was added, and incubate at room temperature for 15 minutes. Cells were washed once with PBS++ and 50 uL 0.1% Triton X-100 (Fisher #BP151-500) in PBS++ was added. Plate was incubate for 5 minutes at room temperature. Cells were was once with PBS++. Cells were blocked with 100 uL Licor blocking buffer (Licor #927-50000) for 1 hour at room temperature. Next, 50 uL of HA antibody (CST #3724) at 1:1000 in Licor blocking buffer was added, and the plate icubate overnight at 4° C. The plates were parafilmed to prevent evaporation. Plate was washed three times with 200 uL PBS++. Fifty microliters of HCS secondary antibody solution [1:1000 Hoechst (Invitrogen #H3570), 1:1000 phalloidin (Invitrogen #A22287) and 1:5000 Alexa fluor (Invitrogen #A11008)] was added and incubated for 1 hour. Plate was wash three times with 200 uL PBS++, and imaged on a high content reader (ImageXpress Micro XLS, Molecular Devices).
as §1

Experiment [3] concerns the target T2, B-RAF G466V. As to the kind of experiment: Target protein degradation, assay D: T-Rex 293 cells, HA-BRAF_G466V, 384 well format. The settings on record: T-Rex 293 HA-BRAF_G466V cells, 24 hours, Examples 83-269; for DC50: Assay D; for Dmax: T-REx-293, Assay D. In a few lines:
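Degradation measured by high-content imaging of anti-HA immunofluorescence in fixed T-Rex 293 cells carrying inducible HA-BRAF G466V (1 ng/mL doxycycline), after 24 h PROTAC exposure at 37 °C over 300 nM–5 pM (1:3, 11 points, 0.5% DMSO). Outputs DC50 and Dmax as % of control; nuclei counts against DMSO wells gauge toxicity.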

Experiment [4] deals with T1, B-RAF V600E. Kind of experiment: Target protein degradation, assay C: T-Rex 293 cells, HA-BRAF_V600E, 384 well format. The settings on record: T-Rex 293 HA-BRAF_V600E cells, 24 hours, Examples 83-269; for DC50: Assay C; for Dmax: T-REx-293, Assay C. In short, it runs like this: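 After 24 h exposure to an 11-point 1:3 series (300 nM–5 pM, 0.5% DMSO), fixed T-Rex 293 cells carrying HA-BRAF V600E (induced with 1 ng/mL doxycycline) were stained anti-HA and imaged. DC50 and Dmax were derived from BRAF intensity relative to control, and cytotoxicity from nuclear counts.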

T1 sequence (P15056 whole entry V600E): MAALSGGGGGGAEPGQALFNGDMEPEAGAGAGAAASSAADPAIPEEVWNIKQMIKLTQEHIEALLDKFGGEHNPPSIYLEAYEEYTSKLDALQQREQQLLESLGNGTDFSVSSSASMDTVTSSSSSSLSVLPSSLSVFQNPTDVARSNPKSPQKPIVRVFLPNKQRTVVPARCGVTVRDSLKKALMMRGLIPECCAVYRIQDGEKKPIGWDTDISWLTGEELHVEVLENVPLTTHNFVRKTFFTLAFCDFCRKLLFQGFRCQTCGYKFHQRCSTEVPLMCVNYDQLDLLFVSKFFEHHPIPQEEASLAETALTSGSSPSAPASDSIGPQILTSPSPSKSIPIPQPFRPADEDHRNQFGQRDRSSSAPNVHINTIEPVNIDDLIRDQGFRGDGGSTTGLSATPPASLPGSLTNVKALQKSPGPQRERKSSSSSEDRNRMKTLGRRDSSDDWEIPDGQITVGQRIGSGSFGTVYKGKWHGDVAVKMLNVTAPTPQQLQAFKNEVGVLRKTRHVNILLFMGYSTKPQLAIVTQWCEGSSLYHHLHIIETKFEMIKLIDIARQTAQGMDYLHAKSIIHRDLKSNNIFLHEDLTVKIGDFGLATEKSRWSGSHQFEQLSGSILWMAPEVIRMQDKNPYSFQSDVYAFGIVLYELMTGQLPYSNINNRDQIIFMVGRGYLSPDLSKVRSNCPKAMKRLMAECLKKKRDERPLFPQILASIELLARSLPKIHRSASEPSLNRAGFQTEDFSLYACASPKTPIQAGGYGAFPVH
T2 sequence (P15056 whole entry G466V): as the sequence (P15056 whole entry V600E) above, with G466V, E600V counted along it

`N#Cc1c(NS(=O)(=O)N2CC[C@@H](F)C2)ccc(F)c1Oc1ccc2ncn(-c3ccc(N4CCN(CC5CCN(c6ccc7c(c6)CN(C6CCC(=O)NC6=O)C7=O)CC5)CC4)cc3)c(=O)c2c1` (stereo partly drawn) [Example 1, (3R)—N-[2-cyano-3-[3-[4-[4-[[1-[2-(2,6-dioxo-3-piperidyl)-1-oxo-isoindolin-5-yl]-4-piperidyl]methyl]piperazin-1-yl]phenyl]-4-oxo-quinazolin-6-yl]oxy-4-fluoro-phenyl]-3-fluoro-pyrrolidine-1-sulfonamide]: in experiment [1], the DC50 (commonly the concentration giving 50% degradation) fell in the range of 5 to 50 nM and the Dmax (commonly the greatest extent of degradation seen) fell in the range of 35 to 70%. Besides, in experiment [2], the 50% degradation concentration (DC50) is not above 1 nM and the Dmax lay within 35 to 70%.
As to `N#Cc1c(NS(=O)(=O)N2CC[C@@H](F)C2)ccc(F)c1Oc1ccc2ncn(-c3ccc(N4CCC(CN5CCC(c6ccc7c(c6)CN([C@H]6CCC(=O)NC6=O)C7=O)CC5)CC4)cc3)c(=O)c2c1` [Example 81, (3R)—N-(2-cyano-3-{[3-(4-{4-[(4-{2-[(3S)-2,6-dioxopiperidin-3-yl]-1-oxo-2,3-dihydro-1H-isoindol-5-yl}piperidin-1-yl)methyl]piperidin-1-yl}phenyl)-4-oxo-3,4-dihydroquinazolin-6-yl]oxy}-4-fluorophenyl)-3-fluoropyrrolidine-1-sulfonamide], in experiment [1], the DC50 fell in the range of 50 to 500 nM and the Dmax fell in the range of 35 to 70%.
Turning to `N#Cc1c(NS(=O)(=O)N2CC[C@@H](F)C2)ccc(F)c1Oc1ccc2ncn(-c3ccc(N4CCC(CN5CC6(CCC(c7ccc8c(c7)CN([C@@H]7CCC(=O)NC7=O)C8=O)CC6)C5)CC4)cc3)c(=O)c2c1` [Example 220, (3R)-N-(2-cyano-3-{[3-(4-{4-[(7-{2-[(3R)-2,6-dioxopiperidin-3-yl]-1-oxo-2,3-dihydro-1H-isoindol-5-yl}-2-azaspiro[3.5]nonan-2-yl)methyl]piperidin-1-yl}phenyl)-4-oxo-3,4-dihydroquinazolin-6-yl]oxy}-4-fluorophenyl)-3-fluoropyrrolidine-1-sulfonamide], in experiment [3], the DC50 lay within 10 to 30 nM and the Dmax lay in the range of 35 to 70%. Further, in experiment [4], the DC50 was in the range of 50 to 500 nM and the Dmax lay in the range of 35 to 70%.
On to `N#Cc1c(NS(=O)(=O)N2CC[C@@H](F)C2)ccc(F)c1Oc1ccc2ncn(-c3ccc(N4CCN(c5cc(N6CCN(c7ccc8c(c7)C(=O)N(C7CCC(=O)NC7=O)C8=O)CC6)ncn5)CC4)nc3)c(=O)c2c1` (stereo partly drawn) [Example 168, (3R)-N-{2-cyano-3-[(3-(6-[4-(6-{4-[2-(2,6-dioxopiperidin-3-yl)-1,3-dioxo-2,3-dihydro-1H-isoindol-5-yl]piperazin-1-yl}pyrimidin-4-yl)piperazin-1-yl]pyridin-3-yl}-4-oxo-3,4-dihydroquinazolin-6-yl)oxy]-4-fluorophenyl}-3-fluoropyrrolidine-1-sulfonamide], for which, in experiment [3], the DC50 lay within 10 to 30 nM and the Dmax fell in the range of 35 to 70%. In experiment [4], this compound gave a half-maximal degradation concentration (DC50) of 50 to 500 nM and a Dmax not above 35%.
In the same order, the values of `N#Cc1c(NS(=O)(=O)N2CC[C@@H](F)C2)ccc(F)c1Oc1ccc2ncn(-c3ccc(N4CCC(CN5CC(c6ccc7c(c6)CN([C@H]6CCC(=O)NC6=O)C7=O)C5)CC4)cc3)c(=O)c2c1` [Example 215, (3R)-N-(2-cyano-3-{[3-(4-{4-[(3-{2-[(3S)-2,6-dioxopiperidin-3-yl]-1-oxo-2,3-dihydro-1H-isoindol-5-yl}azetidin-1-yl)methyl]piperidin-1-yl}phenyl)-4-oxo-3,4-dihydroquinazolin-6-yl]oxy}-4-fluorophenyl)-3-fluoropyrrolidine-1-sulfonamide] are 1 to 10 nM, not above 35%, 50 to 500 nM and 35 to 70%.
Taken in the same sequence, the figures for `Cn1c(=O)n(C2CCC(=O)NC2=O)c2cccc(N3CC4(CC(CN5CCN(c6ccc(-n7cnc8ccc(Oc9c(F)ccc(NS(=O)(=O)N%10CC[C@@H](F)C%10)c9C#N)cc8c7=O)cc6)CC5)C4)C3)c21` (stereo partly drawn) [Example 246, (3R)-N-{2-cyano-3-[(3-{4-[4-({2-[1-(2,6-dioxopiperidin-3-yl)-3-methyl-2-oxo-2,3-dihydro-1H-1,3-benzodiazol-4-yl]-2-azaspiro[3.3]heptan-6-yl}methyl)piperazin-1-yl]phenyl}-4-oxo-3,4-dihydroquinazolin-6-yl)oxy]-4-fluorophenyl}-3-fluoropyrrolidine-1-sulfonamide] were 1 to 10 nM, 35 to 70%, 50 to 500 nM and 35 to 70%.
In the same order, the values of `CN(c1ccc2c(c1)CN([C@@H]1CCC(=O)NC1=O)C2=O)[C@H]1CC[C@H](N2CCN(c3ccc(-n4cnc5ccc(Oc6c(F)ccc(NS(=O)(=O)N7CC[C@@H](F)C7)c6C#N)cc5c4=O)cc3)CC2)CC1` [Example 229, (3R)-N-(2-cyano-4-fluoro-3-{[4-oxo-3-(4-{4-[(1r,4r)-4-({2-[(3R)-2,6-dioxopiperidin-3-yl]-1-oxo-2,3-dihydro-1H-isoindol-5-yl}(methyl)amino)cyclohexyl]piperazin-1-yl}phenyl)-3,4-dihydroquinazolin-6-yl]oxy}phenyl)-3-fluoropyrrolidine-1-sulfonamide] are 1 to 10 nM, 35 to 70%, 50 to 500 nM and 35 to 70%.
For the compound `N#Cc1c(NS(=O)(=O)N2CC[C@@H](F)C2)ccc(F)c1Oc1ccc2ncn(-c3ccc(N4CCC5(CC4)CC(OC4CCN(c6ccc7c(c6)CN([C@H]6CCC(=O)NC6=O)C7=O)CC4)C5)cc3)c(=O)c2c1` [Example 250, (3R)—N-(2-cyano-3-{[3-(4-{2-[(1-{2-[(3S)-2,6-dioxopiperidin-3-yl]-1-oxo-2,3-dihydro-1H-isoindol-5-yl}piperidin-4-yl)oxy]-7-azaspiro[3.5]nonan-7-yl}phenyl)-4-oxo-3,4-dihydroquinazolin-6-yl]oxy}-4-fluorophenyl)-3-fluoropyrrolidine-1-sulfonamide], in experiment [3], the DC50 is 1 to 10 nM and the Dmax is 35 to 70%. In experiment [4], the half-maximal degradation concentration (DC50) was in the range of 50 to 500 nM and the Dmax is 35 to 70%.
